Data: patent publication US20170240556A1, “BIFLUORODIOXALANE-AMINO-BENZIMIDAZOLE KINASE INHIBITORS FOR THE TREATMENT OF CANCER, AUTOIMMUNEINFLAMMATION AND CNS DISORDERS” (4SC DISCOVERY GMBH, priority 2012, published 2017)

Tests used:
[1] = biological target: Casein kinase 1 epsilon (CSKN1E) (Homo sapiens, UniProt P49674); assay: Casein kinase assay, CK1 epsilon; type: biochemical; details: recombinant CSKN1E 30 nM, ATP 10 μM
[2] = biological target: Casein kinase 1 delta (CSKN1D) (Homo sapiens, UniProt P48730); assay: Casein kinase assay, CK1 delta; type: biochemical; details: recombinant CSKN1D 5 nM, ATP 10 μM
[3] = system: Wnt/β-catenin signaling pathway; assay: Wnt reporter assay (CellSensor LEF/TCF-bla FreeStyle 293F cells); type: cell-based; details: Homo sapiens; LEF/TCF-bla 293F cells, LiCl and mWnt3a stimulation
Method: The Wnt reporter assay was performed in stably transfected human HEK293 cells. Wnt signaling was induced by administration of Wnt3a protein and read out by β-Lactamase mediated cleavage of CCF4-AM and subsequent fluorescent detection.
CellSensor LEF/TCF-bla FreeStyle 293F cells (invitrogen #K1677) contain a beta-lactamase reporter gene under control of the β-catenin/LEF/TCF binding elements stably integrated into FreeStyle 293F cells. This cell line can be used to detect antagonists of the Wnt/β-catenin signaling pathway when stimulated by mouse Wnt3a or LiCl. The detection of beta-lactamase is possible with LiveBLAzer FRET—B/G Loading Kit (invitrogen #K1095) with CCF4-AM as subtrate.
Culture Medium: DMEM Medium +10% dialyzed FBS (PAN 2102-P290310), +1% NEAA (PAA M11-003), +1% P/S (Penicillin/Streptomycin, PAA P11-010) +25 mM HEPES (PAA S11-001), +5 μg/ml Blasticidin (PAA P05-017).
Cells (CellSensor LEF/TCF-bla FreeStyle 293F, invitrogen K1677) were split with Culture Medium to reach a confluence at the beginning of the assay of 80-90%.
At start of the assay, cells were harvested from culture and resuspend in assay medium at density of 0,66*10̂6 cells/ml. Subsequently, 60μ1 cell suspension were pipetted in each well of a Poly-D-Lysine 96 well Plate (BD #354640, vertical rows are marked 1 through 12, horizontal lanes are marked A through H),
Plates were subsequently incubated at 37° C. for at least 2 h.
To stimulate with Wnt3a, overnight prestimulation of Wnt signalling pathway with LiCl is necessary. Subsequently, an 8M aqueous LiCl solution was diluted 1:200 in assay medium, and 30 μl of said diluted LiCl solution was plated into the appropriate wells (see below pipetting scheme). Plates were then incubated at 37° C. over night.
Subsequently, compounds and controls were prepared as follows: mWnt3a (R&D 1324-WN, dissolved in PBS+0.1% BSA to 40 μg/ml) was diluted 1:100 in assay medium (=400 ng/ml). Compounds (Cpd) were diluted to a concentration of 10 mM in DMSO to prepare dilution series in assay medium (final concentrations 30 μM, 10 μM, 3 μM, 1 μM, 0.3 μM, 0.1 μM, 0.03 μM and 0.01 μM), which were pipetted into the appropriate wells (see below pipetting scheme). For each dilution of each compound, 3 replicates were tested. Final DMSO concentration was 0.3%.
LiCl and mWnt3a stimulated cells were used as High control (HC), unstimulated cells were used as low control, a blank was prepared from cell free medium plus mWnt3a, and a functional control was prepared with a known Wnt inhibitor (e.g. PKF118-310), final concentrations were as above.
Subsequently, the well was incubated for 5 h at 37° C.
At t=23 hours, FRET reagent mix (Loading Kit with CCF4-AM, Life Technologies #K1096) was prepared; per plate: 138 μl Solution B, 13.8 μl FRET-reagent, and 2300 μl Solution C. 24 μl FRET reagent mix were plated to each well, subsequently plates were incubated for at least 2 h in the dark (it is possible to incubate over night). Subsequently, plates were measured in the BMG FluorStar® plate reader at an emission waveltengths of 460 and 520 nm and with an excitation wavelength of 405 nm.
To determine potential cytotoxicity of the compounds, plates were centrifuge and the supernatant was discarded by dumping the plates. Subsequently, 100 μl Opti-MEM and 50 μl ViaLight (Lonza #LT07-321) Lysis Buffer were added to each well, followed by incubation for 10 min at room temperature (25° C.). Subsequently, 100 μl ViaLight reagent were added to each well, followed by incubation for 2 min at room temperature (25° C.) in the dark. Optionally, 200 μl of the obtained suspension were transferred to a white 96 well plate. The luminescence was measured with a Tecan Ultra plate reader.

[4] = system: Hedgehog signaling pathway; assay: Hedgehog reporter assay (Gli Reporter - NIH3T3 Cell Line); type: cell-based; details: Mus musculus; Gli reporter NIH3T3 cells, murine SHH stimulation, 24 h; read-out: HH Assay
Method: In order to investigate the potency of test compounds to inhibit the Hedgehog signaling pathway, a Gli-Reporter assay was performed.
The “Gli Reporter—NIH3T3 Cell Line” contains the firefly luciferase gene under the control of Gli responsive elements stably integrated into murine NIH3T3 cells (cells purchased from Amsbio). The luciferase expression correlates with activation of the hedgehog signaling pathway. This cell line is validated for its response to stimulation with murine Sonic Hedgehog and to treatment with inhibitors of the hedgehog signaling pathway. A multiplexed viability assay was used to discriminate inhibition on the pathway activity from cell toxicity.
Growth Medium: DMEM, 10% Calf Serum, 1% Penicillin/Streptomycin 500 μg/ml Geneticin (G418 Stock 50 mg/ml).
25.000 cells per well were seeded into a white 96 well plate in 100 μl growth medium and incubated over night at 37° C. and 5% CO2. After removing the supernatant the test compounds and controls (known GLI inhibitor, e.g. GANT-61) were added in different concentrations in a final volume of 45 μl and incubated for 1 h at 37° C. and 5% CO2. For the stimulation of the Hedgehog pathway 5 μl of 10 μg/ml concentrated murine sonic hedgehog (SHH) was added to the cells. A final concentration of 1 μg/ml mSHH and 0.1% DMSO was reached per well. After incubation for 24 h at 37° C. the cells were investigated for viability and reporter activity.
Viability: For the determination of the viability of the treated cells the CellTiter-Fluor Kit from Promega was used. Essentially, only proteases of viable cells are able to cleave the cell-permeant substrate Gly-Phe-AFCoumarin (GF-AFC). By this cleavage the fluorescent AFC is set free and can be detected in a fluorescence reader. For this assay 10 μl of GF-AFC substrate (CellTiter-Fluor, Promega #G6082) was diluted in 2 ml assay buffer from the CellTiter-Fluor Kit and 10 μl of this dilution was added per well to the cells and incubated for 30 min at 37° C. The fluorescence was measured with excitation at 380-400 nm and emission at 505 nm.
Reporter activity: The firefly luciferase reporter activity was detected with the ONE-Glo™ Luciferase Assay System from Promega. For this assay 50 μl ONE-Glo luciferase reagent (Promega #E6120, contains cell lysis buffer and luciferin) was added to each well and incubated at room temperature for 5 min. Luminescence was detected in a plate reader and served as a degree for reporter activity.

Sequence of Casein kinase 1 delta (CSKN1D) (P48730 whole entry): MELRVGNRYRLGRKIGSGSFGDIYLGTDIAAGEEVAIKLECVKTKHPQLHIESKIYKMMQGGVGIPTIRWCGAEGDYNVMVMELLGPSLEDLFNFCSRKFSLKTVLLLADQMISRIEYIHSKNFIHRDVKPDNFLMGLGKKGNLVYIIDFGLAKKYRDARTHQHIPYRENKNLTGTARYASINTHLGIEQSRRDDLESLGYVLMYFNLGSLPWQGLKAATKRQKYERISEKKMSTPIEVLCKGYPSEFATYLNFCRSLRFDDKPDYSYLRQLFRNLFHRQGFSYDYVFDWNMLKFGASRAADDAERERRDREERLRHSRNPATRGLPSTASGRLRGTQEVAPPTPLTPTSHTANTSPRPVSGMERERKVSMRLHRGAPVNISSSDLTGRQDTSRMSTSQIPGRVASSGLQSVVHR
Sequence of Casein kinase 1 epsilon (CSKN1E) (P49674 whole entry): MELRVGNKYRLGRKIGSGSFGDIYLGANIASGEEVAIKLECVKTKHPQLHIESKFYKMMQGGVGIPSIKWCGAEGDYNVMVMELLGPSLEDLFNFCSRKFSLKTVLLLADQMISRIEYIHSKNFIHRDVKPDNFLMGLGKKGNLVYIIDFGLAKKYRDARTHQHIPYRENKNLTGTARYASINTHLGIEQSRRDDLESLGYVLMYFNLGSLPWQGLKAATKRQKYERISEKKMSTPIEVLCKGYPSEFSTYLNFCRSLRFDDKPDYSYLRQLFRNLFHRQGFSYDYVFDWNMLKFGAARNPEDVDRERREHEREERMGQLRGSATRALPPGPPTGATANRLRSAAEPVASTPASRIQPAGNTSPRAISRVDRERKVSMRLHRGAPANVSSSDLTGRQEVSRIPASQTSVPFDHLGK

| Compound | IC50 [1] [nM] | IC50 [2] [nM] | IC50 [3] [nM] | IC50 [4] [nM] |
| --- | --- | --- | --- | --- |
| COc1cc(OC)cc(C(=O)Nc2nc3cc4c(cc3[nH]2)OC(F)(F)O4)c1 [Compound 1B, N-(2,2-difluoro-5H-[1,3]dioxolo[4′,5′:4,5]benzo[1,2-d]imidazol-6-yl)-3,5-dimethoxybenzamide] | < 200 | < 200 | < 5000 | – |
| O=C(Nc1nc2cc3c(cc2[nH]1)OC(F)(F)O3)c1cccc(-c2nccs2)c1 [Compound 2B, N-(2,2-difluoro-5H-[1,3]dioxolo[4′,5′:4,5]benzo[1,2-d]imidazol-6-yl)-3-(thiazol-2-yl)benzamide] | – | < 200 | < 5000 | – |
| O=C(Nc1nc2cc3c(cc2[nH]1)OC(F)(F)O3)c1csc(-c2ccc3c(c2)CCO3)n1 [Compound 3, N-(2,2-difluoro-5H-[1,3]dioxolo[4′,5′:4,5]benzo[1,2-d]imidazol-6-yl)-2-(2,3-dihydrobenzofuran-5-yl)thiazole-4-carboxamide] | 200 to 1000 | < 200 | – | ≤ 500 |
| COc1cccc(CC(=O)Nc2nc3cc4c(cc3[nH]2)OC(F)(F)O4)c1 [Compound 3B, N-(2,2-difluoro-5H-[1,3]dioxolo[4′,5′:4,5]benzo[1,2-d]imidazol-6-yl)-2-(3-methoxyphenyl)acetamide] | < 200 | < 200 | – | 500 to 1000 |
| O=C(Nc1nc2cc3c(cc2[nH]1)OC(F)(F)O3)c1cccc(-c2cc[nH]n2)c1 [Compound 5B, N-(2,2-difluoro-5H-[1,3]dioxolo[4′,5′:4,5]benzo[1,2-d]imidazol-6-yl)-3-(1H-pyrazol-3-yl)benzamide] | – | < 200 | – | 1000 to 15000 |
| O=C(Nc1nc2cc3c(cc2[nH]1)OC(F)(F)O3)c1csc(-c2ccco2)n1 [Compound 6B, N-(2,2-difluoro-5H-[1,3]dioxolo[4′,5′:4,5]benzo[1,2-d]imidazol-6-yl)-2-(furan-2-yl)thiazole-4-carboxamide] | < 200 | < 200 | – | 500 to 1000 |
| Nc1nccnc1C(=O)Nc1nc2cc3c(cc2[nH]1)OC(F)(F)O3 [Compound 7, 3-amino-N-(2,2-difluoro-5H-[1,3]dioxolo[4′,5′:4,5]benzo[1,2-d]imidazol-6-yl)pyrazine-2-carboxamide] | > 1000 | > 1000 | – | 1000 to 15000 |
| CN(C)c1cncc(C(=O)Nc2nc3cc4c(cc3[nH]2)OC(F)(F)O4)c1 [Compound 7B, N-(2,2-difluoro-5H-[1,3]dioxolo[4′,5′:4,5]benzo[1,2-d]imidazol-6-yl)-5-(dimethylamino)nicotinamide] | – | < 200 | – | 1000 to 15000 |
| O=C(Nc1nc2cc3c(cc2[nH]1)OC(F)(F)O3)c1csc(-c2cccs2)n1 [Compound 11B, N-(2,2-difluoro-5H-[1,3]dioxolo[4′,5′:4,5]benzo[1,2-d]imidazol-6-yl)-2-(thiophen-2-yl)thiazole-4-carboxamide] | – | < 200 | – | 1000 to 15000 |
| O=C(Nc1nc2cc3c(cc2[nH]1)OC(F)(F)O3)c1csc(-c2ccoc2)n1 [Compound 16B, N-(2,2-difluoro-5H-[1,3]dioxolo[4′,5′:4,5]benzo[1,2-d]imidazol-6-yl)-2-(furan-3-yl)thiazole-4-carboxamide] | – | < 200 | – | 1000 to 15000 |
| O=C(Nc1nc2cc3c(cc2[nH]1)OC(F)(F)O3)c1cnccn1 [Compound 27, N-(2,2-difluoro-5H-[1,3]dioxolo[4′,5′:4,5]benzo[1,2-d]imidazol-6-yl)pyrazine-2-carboxamide] | > 1000 | > 1000 | – | 1000 to 15000 |
| CN(C)c1cccc(C(=O)Nc2nc3cc4c(cc3[nH]2)OC(F)(F)O4)c1 [Compound 102, N-(2,2-difluoro-5H-[1,3]dioxolo[4′,5′:4,5]benzo[1,2-d]imidazol-6-yl)-3-(dimethylamino)benzamide] | – | < 200 | – | 500 to 1000 |
| O=C(Nc1nc2cc3c(cc2[nH]1)OC(F)(F)O3)c1cccc(N2CCCC2)c1 [Compound 122, N-(2,2-difluoro-5H-[1,3]dioxolo[4′,5′:4,5]benzo[1,2-d]imidazol-6-yl)-3-(pyrrolidin-1-yl)benzamide] | – | < 200 | – | ≤ 500 |
| CN(C)c1cc(C(=O)Nc2nc3cc4c(cc3[nH]2)OC(F)(F)O4)ccn1 [Compound 125, N-(2,2-difluoro-5H-[1,3]dioxolo[4′,5′:4,5]benzo[1,2-d]imidazol-6-yl)-2-(dimethylamino)isonicotinamide] | – | < 200 | – | 1000 to 15000 |
| Cc1cc(C)n(-c2cccc(C(=O)Nc3nc4cc5c(cc4[nH]3)OC(F)(F)O5)c2)n1 [Compound 130, N-(2,2-difluoro-5H-[1,3]dioxolo[4′,5′:4,5]benzo[1,2-d]imidazol-6-yl)-3-(3,5-dimethyl-1H-pyrazol-1-yl)benzamide] | < 200 | < 200 | – | ≤ 500 |
| O=C(Nc1nc2cc3c(cc2[nH]1)OC(F)(F)O3)c1cc(-c2cccs2)on1 [Compound 138, N-(2,2-difluoro-5H-[1,3]dioxolo[4′,5′:4,5]benzo[1,2-d]imidazol-6-yl)-5-(thiophen-2-yl)isoxazole-3-carboxamide] | < 200 | < 200 | – | 500 to 1000 |
| O=C(Nc1nc2cc3c(cc2[nH]1)OC(F)(F)O3)c1cccc(-c2noc(C3CC3)n2)c1 [Compound 147, 3-(5-cyclopropyl-1,2,4-oxadiazol-3-yl)-N-(2,2-difluoro-5H-[1,3]dioxolo[4′,5′:4,5]benzo[1,2-d]imidazol-6-yl)-benzamide] | < 200 | < 200 | – | 500 to 1000 |
